This is an account of results in patent US10301306B2, “Substituted dihydro-1H-pyrrolo[3,2-c]pyridin-4(5H)-ones as RIPK3 inhibitors” (BRISTOL-MYERS SQUIBB COMPANY, priority 2014, dated 2019).

Where only a bound is given, the exact number is not on record here.

RIPK3, sequence (Q9Y572 whole entry, species assumed): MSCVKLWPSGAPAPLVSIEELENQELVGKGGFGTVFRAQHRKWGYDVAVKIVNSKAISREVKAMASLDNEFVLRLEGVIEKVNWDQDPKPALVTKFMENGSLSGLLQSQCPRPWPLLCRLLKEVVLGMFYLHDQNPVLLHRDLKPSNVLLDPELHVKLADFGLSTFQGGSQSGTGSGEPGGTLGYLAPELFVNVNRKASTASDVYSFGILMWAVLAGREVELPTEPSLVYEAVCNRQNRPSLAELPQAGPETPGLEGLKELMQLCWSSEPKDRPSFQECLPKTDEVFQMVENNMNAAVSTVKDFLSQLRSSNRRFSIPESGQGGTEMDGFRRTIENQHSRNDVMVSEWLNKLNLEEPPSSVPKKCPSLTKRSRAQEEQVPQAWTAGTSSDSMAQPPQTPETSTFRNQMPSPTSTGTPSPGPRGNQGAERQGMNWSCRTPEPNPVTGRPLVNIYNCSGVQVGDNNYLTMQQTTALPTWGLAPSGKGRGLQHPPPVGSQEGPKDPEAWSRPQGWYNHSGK

The assay addresses RIPK3 (Homo sapiens (Human), UniProt Q9Y572). The assay is described as follows: RIPK3 HTRF Kinase Assay. The assay is classed as binding. Conditions: RIPK3 1 nM; HTRF probe 23 nM; 60 min at room temperature; read-out: IC50 for Inhibition of RIPK3. For orientation: Time-resolved FRET reads energy transfer from a long-lived donor to a nearby acceptor.
`CCC(=O)Nc1cc(-c2c(-c3ccc(F)cc3)c3c(=O)[nH]ccc3n2Cc2ccc(C(F)(F)F)cc2F)ccn1` [Example 156, N-(4-(1-(2-Fluoro-4-(trifluoromethyl)benzyl)-3-(4-fluorophenyl)-4-oxo-4,5-dihydro-1H-pyrrolo[3,2-c]pyridin-2-yl)pyridin-2-yl)propionamide]: the IC50 was less than 30 nM.

On to `O=c1[nH]ccc2c1c(-c1ccc(F)cc1)c(-c1ccncc1)n2Cc1ccc(C(F)(F)F)cc1F` [Example 157, 1-(2-Fluoro-4-(trifluoromethyl)benzyl)-3-(4-fluorophenyl)-2-(pyridin-4-yl)-1H-pyrrolo[3,2-c]pyridin-4(5H)-one], for which the IC50 was less than 30 nM.

As to `Cc1ccc(S(=O)(=O)n2c3c(c(-c4ccc(F)cc4)c2-c2ccncc2)C(=O)NCC3)cc1` [Example 162, 3-(4-Fluorophenyl)-2-(pyridin-4-yl)-1-tosyl-6,7-dihydro-1H-pyrrolo[3,2-c]pyridin-4(5H)-one], the IC50 lay in the range of 100 to 15000 nM.

For the compound `CC(C)(C)OC(=O)Nc1cccc(-c2c3c(n(Cc4ccc(Cl)cc4F)c2-c2ccncc2)CCNC3=O)c1` [Example 163], the IC50 lay within 31 to 100 nM. `Cc1ccc(-c2c3c(n(Cc4ccc(Cl)cc4F)c2-c2ccncc2)CCNC3=O)s1` [Example 164]: the IC50 was less than 30 nM. The result for `Cn1cc(-c2c3c(n(Cc4ccc(Cl)cc4F)c2-c2ccncc2)CCNC3=O)cn1` [Example 165] reads 100 to 15000 nM.

Regarding `O=C1NCCc2c1c(-c1ccncc1F)c(-c1ccncc1)n2Cc1ccc(Cl)cc1F` [Example 166], the IC50 is 100 to 15000 nM. For the compound `COC(=O)c1cccc(-c2c3c(n(Cc4ccc(Cl)cc4F)c2-c2ccncc2)CCNC3=O)c1` [Example 167], the IC50 is 100 to 15000 nM. `Cc1cc(-c2c3c(n(Cc4ccc(Cl)cc4F)c2-c2ccncc2)CCNC3=O)ccn1` [Example 168]: the IC50 was in the range of 100 to 15000 nM. Take `Nc1cccc(-c2c3c(n(Cc4ccc(Cl)cc4F)c2-c2ccncc2)CCNC3=O)c1` [Example 169]: the IC50 was in the range of 100 to 15000 nM.

As to `CCCC(=O)Nc1cccc(-c2c3c(n(Cc4ccc(Cl)cc4F)c2-c2ccncc2)CCNC3=O)c1` [Example 170], the half-inhibitory concentration (IC50) lay within 100 to 15000 nM. As for `Cc1cc(Cn2c3c(c(-c4cccc(NC(=O)OC(C)(C)C)c4)c2-c2ccncc2)C(=O)NCC3)n(C)n1` [Example 171], the figure is 31 to 100 nM; as for `COC(=O)c1cccc(-c2c3c(n(Cc4cc(C)nn4C)c2-c2ccncc2)CCNC3=O)c1` [Example 172], 100 to 15000 nM; as for `Cc1cc(Cn2c3c(c(-c4cccc(-c5c(C)noc5C)c4)c2-c2ccncc2)C(=O)NCC3)n(C)n1` [Example 173], 100 to 15000 nM. For `Cc1cc(Cn2c3c(c(-c4cccc(N)c4)c2-c2ccncc2)C(=O)NCC3)n(C)n1` [Example 174], the IC50 was in the range of 100 to 15000 nM.

Turning to `Cc1cc(Cn2c3c(c(-c4cccc(NC(=O)Cc5ccccc5)c4)c2-c2ccncc2)C(=O)NCC3)n(C)n1` [Example 175], the IC50 was 100 to 15000 nM.

For `Cc1cc(Cn2c3c(c(-c4cccc(NC(=O)c5ccccc5)c4)c2-c2ccncc2)C(=O)NCC3)n(C)n1` [Example 176], the IC50 was 100 to 15000 nM.

With `Cc1cc(Cn2c3c(c(-c4cccc(NC(=O)C5CC5)c4)c2-c2ccncc2)C(=O)NCC3)n(C)n1` [Example 177], the IC50 is 100 to 15000 nM. On to `Cc1cc(Cn2c3c(c(-c4cccc(NC=O)c4)c2-c2ccncc2)C(=O)NCC3)n(C)n1` [Example 178], for which the IC50 was 100 to 15000 nM. As to `CCC(=O)Nc1cccc(-c2c3c(n(Cc4cc(C)nn4C)c2-c2ccncc2)CCNC3=O)c1` [Example 179], the IC50 lay within 100 to 15000 nM. Take `Cc1cc(Cn2c3c(c(-c4cccc(CCc5ccccc5)c4)c2-c2ccncc2)C(=O)NCC3)n(C)n1` [Example 180]: the IC50 was in the range of 100 to 15000 nM. In the case of `Cc1cc(Cn2c3c(c(-c4cccc(CCC5CCCCC5)c4)c2-c2ccncc2)C(=O)NCC3)n(C)n1` [Example 181], the IC50 fell in the range of 100 to 15000 nM.

For `Cc1cc(Cn2c3c(c(-c4ccc(F)cc4)c2-c2ccncc2F)C(=O)NCC3)n(C)n1` [Example 182], the half-maximal inhibitory concentration (IC50) was in the range of 31 to 100 nM.

For the compound `COc1cnccc1-c1c(-c2ccc(F)cc2)c2c(n1Cc1cc(C)nn1C)CCNC2=O` [Example 183], the IC50 is less than 30 nM. The result for `Cc1cc(Cn2c3c(c(-c4ccc(F)cc4)c2-c2cn[nH]c2)C(=O)NCC3)n(C)n1` [Example 184] reads 100 to 15000 nM; that for `Cc1cc(Cn2c3c(c(-c4cccc(NC(=O)OC(C)(C)C)c4)c2-c2ccnc(NC(=O)C4CC4)c2)C(=O)NCC3)n(C)n1` [Example 185, tert-Butyl (3-(2-(2-(cyclopropanecarboxamido)pyridin-4-yl)-1-((1,3-dimethyl-1H-pyrazol-5-yl)methyl)-4-oxo-4,5,6,7-tetrahydro-1H-pyrrolo[3,2-c]pyridin-3-yl)phenyl)carbamate], 100 to 15000 nM.

By IC50 is commonly meant the midpoint of a concentration-inhibition curve.
